# Tests used:
# PARP1 = target: T1, PARP1 (Homo sapiens, UniProt P09874); assay: PARP fluorescence anisotropy binding assay, PARP1; settings: recombinant full length 6HIS tagged PARP1
# T1 construct: Recombinant full length 6HIS tagged PARP1 protein; 6HIS
# Protocol: Recombinant full length 6HIS tagged PARP1 protein was diluted to 6 nM with 50 mM Tris pH 8, 0.001% Triton X100, 10 mM MgCl2, 150 mM NaCl and incubated for four hours with an equivalent volume of 2 nM fluorescent probe diluted with 50 mM Tris pH 8, 0.001% Triton X100, 10 mM MgCl2, 150 mM NaCl. The final DMSO concentration of the probe was kept below 1% (v/v).
# hERG = hERG (Homo sapiens, UniProt Q12809); assay: hERG inhibition
# Text: It is well known that blockade of the cardiac ion channel coded by human ether-n-gogo-related gene (hERG) is a risk factor in drug discovery and development. Blockage of hERG can cause safety problems such as cardiac arrhythmia. Advantageously, the compounds of Formula I have low hERG activity.
# PARP6 = target: T2, PARP6 (Homo sapiens, UniProt Q2NL67); assay: PARP fluorescence anisotropy binding assay, PARP6; settings: recombinant full length GST tagged PARP6
# T2 construct: Recombinant full length GST tagged PARP6 protein; GST
# Protocol: (§1) PARP Fluorescence Anisotropy Binding Assays
# (§2) Recombinant full length GST tagged PARP6 protein was diluted to 160 nM with 50 mM Tris pH 8, 0.001% Triton X100, 10 mM MgCl2, 150 mM NaCl and incubated for four hours with an equivalent volume of 6 nM fluorescent probe diluted with 50 mM Tris pH 8, 0.001% Triton X100, 10 mM MgCl2, 150 mM NaCl. The final DMSO concentration of the probe was kept below 1% (v/v).
# Fluorescence anisotropy of the probe when bound to the proteins was measured using a BMG Pherastar FSX© in the presence of test compounds or solvent control and the effect on anisotropy determined. % inhibition values for different test compound concentrations were calculated and fitted to a four parameter logistic plot in order to determine the IC50 value. Where necessary, the compound Ki can be determined from the IC50 value using a Munson Rodbard equation defined in Anal Biochem. 1980 Sep. 1; 107(1):220-39 and is based on the known KD of the probe binding to the relevant PARP protein
# PARP5a = PARP5a (Homo sapiens, UniProt O95271); assay: PARP fluorescence anisotropy binding assay, PARP5a binding domain; settings: recombinant PARP5a binding domain
# Text: as §1
# BRCA2 (−/−) DLD1 cells = assay: PARP proliferation assay (7 day compound dosing), BRCA2 (−/−) DLD1; type: cell-based; settings: BRCA2 −/− DLD-1 cells, 7 day dosing; read-out: BRCA2 −/− DLD-1 prolif. 7 d IC50
# Protocol: (§3) PARP Proliferation Assay (7 Day Compound Dosing)
# (§4) DLD1 and BRCA2 (−/−) DLD1 cells were harvested to a density of 5000 cells/ml and 2.5E4 cells/ml respectively in complete media, 40 μL/well seeded into 384-well plates (Greiner, Kremsmunster, Austria; 781090) using a Multidrop Combi then incubated at 37° C., 5% CO2 overnight. Next day (Day 1) using a Multidrop Combi add sytoxgreen (5 ul, 2 uM) and saponin (10 ul, 0.25% stock) to a day 0 plate, seal the plate using a black adhesive lid and incubate for >3 h at rt. Cells were imaged using Cell Insight (Thermo Fisher) fitted with a 4× objective. Test compounds are added using an Echo 555 and placed in incubator maintained at 37° C., 5% CO2 and incubated for 7 days. On Day 8 add sytox green (5 ul, 2 uM) and then saponin (10 ul, 0.25% stock) to plates, seal the plate using a black adhesive lid and incubate for >3 h at rt. Read all cells on the Cell Insight with 4× Objective. The rate of proliferation is determined in Genedata by assessing the total cell number output from the Cell Insight for Day 0 and Day 8 plates.
# MDR1 and BCRP = assay: In vitro human transporter efflux (MDCK-MDR1-BCRP); type: in vitro ADME; settings: human, pH 7.4, Papp(B to A)/Papp(A to B), 1 or 0.1 μM, 90-min incubation
# Protocol: In Vitro Human Transporter Efflux
# (§5) MDCKII cells expressing MDR1 and BCRP were seeded onto polyethylene membranes in 96-well Transwell insert systems at a density to form a confluent cell monolayer. […] The final percent volume of the organic solvent was less than 1%. Permeation of the test compounds from A to B direction and from B to A direction was determined over a 90-min incubation at 37° C. and 5% CO2 with a relative humidity of 95%. At the end of the incubation, samples from the apical and basolateral side were taken and then precipitated with cold acetonitrile containing internal standard. After centrifugation at 4000 rpm, the supernatant was diluted with 0.1% formic acid aqueous solution and quantified by LC-MS/MS. The integrity of the cell monolayers was confirmed by using the marker Lucifer yellow.
# (§6) (1) The efflux ratio was calculated using the following equation Efflux ratio=Papp(B to A)/Papp(A to B)
# (§7) (2) where dCr/dt is the cumulative concentration of the compound in the receiver chamber as a function of time (in μM/s); Vr is the solution volume in the receiver chamber (0.1 ml on the apical side and 0.3 ml on the basolateral side); A is the surface area for the transport, that is, 0.11 cm2 for the area of the monolayer; and CO is the initial concentration in the donor chamber (in μM).
# PARP3 = target: T3, PARP3 (Homo sapiens, UniProt Q9Y6F1); assay: PARP fluorescence anisotropy binding assay, PARP3; settings: recombinant full length PARP3
# T3 construct: Recombinant full length PARP3 protein
# T3 sequence (Q9Y6F1 1-533): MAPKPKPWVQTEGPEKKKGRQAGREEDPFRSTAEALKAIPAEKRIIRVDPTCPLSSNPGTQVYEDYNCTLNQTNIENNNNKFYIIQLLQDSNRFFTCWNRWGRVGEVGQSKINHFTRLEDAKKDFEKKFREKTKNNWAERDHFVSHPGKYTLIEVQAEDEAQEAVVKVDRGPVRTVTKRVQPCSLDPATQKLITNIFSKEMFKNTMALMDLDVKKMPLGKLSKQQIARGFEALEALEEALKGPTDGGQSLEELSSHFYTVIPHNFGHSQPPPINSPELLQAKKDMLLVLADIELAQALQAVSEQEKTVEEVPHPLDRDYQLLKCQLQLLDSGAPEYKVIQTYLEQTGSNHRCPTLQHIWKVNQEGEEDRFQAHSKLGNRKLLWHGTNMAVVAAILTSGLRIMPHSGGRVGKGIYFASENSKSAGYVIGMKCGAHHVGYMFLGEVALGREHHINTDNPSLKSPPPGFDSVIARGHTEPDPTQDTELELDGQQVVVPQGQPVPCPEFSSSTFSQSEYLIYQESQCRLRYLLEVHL
# Text: as §1
# DLD1 cells = assay: PARP proliferation assay (7 day compound dosing), WT DLD1; type: cell-based; settings: Homo sapiens, 168 h; WT DLD-1 cells, 7 day dosing; read-out: WT DLD-1 prolif. 7 d IC50
# Protocol: as §3, §4
# [1] = system: MDCKII cells expressing MDR1 and BCRP; assay: In vitro human transporter efflux (MDCK-MDR1-BCRP); type: in vitro ADME; settings: Papp(B to A)/Papp(A to B), 1 or 0.1 μM, 90-min incubation
# Protocol: In Vitro Human Transporter Efflux
# as §5, §6, §7
# PARP2 = target: T4, PARP2 (Homo sapiens, UniProt Q9UGN5); assay: PARP fluorescence anisotropy binding assay, PARP2; settings: recombinant full length PARP2
# T4 construct: Recombinant full length PARP2 protein
# Protocol: as §1
# as §2, with “PARP2” for “GST tagged PARP6”, “6” for “160”, “2” for “6”
# Fluorescence anisotropy of the probe when bound to the proteins was measured using a BMG Pherastar FSX© in the presence of test compounds or solvent control and the effect on anisotropy determined. % inhibition values for different test compound concentrations were calculated and fitted to a four parameter logistic plot in order to determine the IC50 value.
# T1 sequence (P09874 whole entry): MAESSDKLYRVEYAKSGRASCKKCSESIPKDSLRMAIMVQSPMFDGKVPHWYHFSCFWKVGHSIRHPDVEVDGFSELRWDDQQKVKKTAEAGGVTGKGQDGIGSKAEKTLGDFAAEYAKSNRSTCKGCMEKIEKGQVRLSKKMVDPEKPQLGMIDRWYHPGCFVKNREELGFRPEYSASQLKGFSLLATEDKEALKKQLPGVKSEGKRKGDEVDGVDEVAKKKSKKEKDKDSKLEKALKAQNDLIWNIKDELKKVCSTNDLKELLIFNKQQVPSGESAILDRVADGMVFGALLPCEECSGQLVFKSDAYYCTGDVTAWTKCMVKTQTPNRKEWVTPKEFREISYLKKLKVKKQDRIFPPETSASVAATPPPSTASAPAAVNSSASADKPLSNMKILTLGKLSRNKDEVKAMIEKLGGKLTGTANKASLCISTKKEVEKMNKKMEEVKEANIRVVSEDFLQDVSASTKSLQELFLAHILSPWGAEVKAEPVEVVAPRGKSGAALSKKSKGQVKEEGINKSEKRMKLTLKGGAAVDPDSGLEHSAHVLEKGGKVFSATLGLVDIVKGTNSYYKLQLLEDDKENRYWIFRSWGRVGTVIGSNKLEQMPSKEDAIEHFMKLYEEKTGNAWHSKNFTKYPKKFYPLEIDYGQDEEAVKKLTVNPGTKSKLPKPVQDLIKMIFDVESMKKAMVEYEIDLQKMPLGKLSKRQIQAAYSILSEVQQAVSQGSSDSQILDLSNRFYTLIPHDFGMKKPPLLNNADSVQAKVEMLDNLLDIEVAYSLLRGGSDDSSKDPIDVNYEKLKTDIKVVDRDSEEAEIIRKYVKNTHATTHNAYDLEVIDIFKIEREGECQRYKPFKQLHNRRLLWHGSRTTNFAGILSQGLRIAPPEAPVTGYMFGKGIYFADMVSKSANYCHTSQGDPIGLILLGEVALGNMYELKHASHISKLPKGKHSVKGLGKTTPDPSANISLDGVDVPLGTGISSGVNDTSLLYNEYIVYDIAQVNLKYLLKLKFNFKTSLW
# T2 sequence (Q2NL67 whole entry): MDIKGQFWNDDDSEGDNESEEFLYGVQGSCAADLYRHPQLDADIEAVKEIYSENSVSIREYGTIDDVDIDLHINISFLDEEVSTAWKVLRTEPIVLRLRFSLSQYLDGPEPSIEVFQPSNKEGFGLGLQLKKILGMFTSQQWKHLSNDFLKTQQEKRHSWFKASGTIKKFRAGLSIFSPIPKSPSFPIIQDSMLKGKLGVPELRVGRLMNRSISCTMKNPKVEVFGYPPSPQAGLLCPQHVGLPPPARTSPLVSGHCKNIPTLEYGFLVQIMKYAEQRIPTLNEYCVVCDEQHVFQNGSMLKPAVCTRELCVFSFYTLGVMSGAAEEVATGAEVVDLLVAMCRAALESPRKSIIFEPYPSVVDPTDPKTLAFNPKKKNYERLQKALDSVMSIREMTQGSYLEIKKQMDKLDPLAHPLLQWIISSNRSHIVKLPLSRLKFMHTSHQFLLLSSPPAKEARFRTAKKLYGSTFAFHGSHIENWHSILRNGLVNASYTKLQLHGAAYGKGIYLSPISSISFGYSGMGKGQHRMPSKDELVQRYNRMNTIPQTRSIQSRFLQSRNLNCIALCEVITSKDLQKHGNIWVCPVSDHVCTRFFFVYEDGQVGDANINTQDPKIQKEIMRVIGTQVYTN
# Sequence of PARP5a (O95271 1112-1317): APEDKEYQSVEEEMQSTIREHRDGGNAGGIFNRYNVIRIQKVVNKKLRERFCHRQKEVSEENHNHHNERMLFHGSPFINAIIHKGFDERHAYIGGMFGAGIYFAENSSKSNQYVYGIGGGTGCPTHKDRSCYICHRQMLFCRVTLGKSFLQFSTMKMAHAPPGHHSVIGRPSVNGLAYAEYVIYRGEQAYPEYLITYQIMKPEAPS
# Sequence of hERG (Q12809 whole entry): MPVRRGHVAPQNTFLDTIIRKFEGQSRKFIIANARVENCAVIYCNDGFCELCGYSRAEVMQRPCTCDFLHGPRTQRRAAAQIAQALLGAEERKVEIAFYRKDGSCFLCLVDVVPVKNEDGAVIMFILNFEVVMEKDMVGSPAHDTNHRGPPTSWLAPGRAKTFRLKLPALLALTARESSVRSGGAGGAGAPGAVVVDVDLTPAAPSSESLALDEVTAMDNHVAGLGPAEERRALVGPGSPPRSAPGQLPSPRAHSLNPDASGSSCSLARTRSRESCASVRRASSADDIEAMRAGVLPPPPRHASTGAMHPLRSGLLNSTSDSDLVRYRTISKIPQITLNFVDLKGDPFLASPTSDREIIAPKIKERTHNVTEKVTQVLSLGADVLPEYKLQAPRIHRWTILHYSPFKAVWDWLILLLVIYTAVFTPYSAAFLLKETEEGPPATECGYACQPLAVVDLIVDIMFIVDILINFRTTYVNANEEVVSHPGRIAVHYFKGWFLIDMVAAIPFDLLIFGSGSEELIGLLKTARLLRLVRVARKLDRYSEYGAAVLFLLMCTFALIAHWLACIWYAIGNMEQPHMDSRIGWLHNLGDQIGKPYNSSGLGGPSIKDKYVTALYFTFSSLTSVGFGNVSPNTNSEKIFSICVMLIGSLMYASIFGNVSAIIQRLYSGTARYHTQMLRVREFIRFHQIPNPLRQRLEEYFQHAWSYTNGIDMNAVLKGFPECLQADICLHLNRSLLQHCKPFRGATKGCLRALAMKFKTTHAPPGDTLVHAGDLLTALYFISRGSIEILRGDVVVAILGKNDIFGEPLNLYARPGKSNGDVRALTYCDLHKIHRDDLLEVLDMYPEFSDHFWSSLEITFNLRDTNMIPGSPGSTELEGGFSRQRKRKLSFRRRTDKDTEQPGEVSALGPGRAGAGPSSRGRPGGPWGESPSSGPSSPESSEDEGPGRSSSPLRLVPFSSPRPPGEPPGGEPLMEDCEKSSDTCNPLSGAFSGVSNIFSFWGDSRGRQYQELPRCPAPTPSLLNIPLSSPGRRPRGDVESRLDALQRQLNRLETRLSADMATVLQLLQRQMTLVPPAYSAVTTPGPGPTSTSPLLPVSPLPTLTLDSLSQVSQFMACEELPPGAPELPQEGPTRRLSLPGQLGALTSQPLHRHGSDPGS
# T4 sequence (Q9UGN5 whole entry): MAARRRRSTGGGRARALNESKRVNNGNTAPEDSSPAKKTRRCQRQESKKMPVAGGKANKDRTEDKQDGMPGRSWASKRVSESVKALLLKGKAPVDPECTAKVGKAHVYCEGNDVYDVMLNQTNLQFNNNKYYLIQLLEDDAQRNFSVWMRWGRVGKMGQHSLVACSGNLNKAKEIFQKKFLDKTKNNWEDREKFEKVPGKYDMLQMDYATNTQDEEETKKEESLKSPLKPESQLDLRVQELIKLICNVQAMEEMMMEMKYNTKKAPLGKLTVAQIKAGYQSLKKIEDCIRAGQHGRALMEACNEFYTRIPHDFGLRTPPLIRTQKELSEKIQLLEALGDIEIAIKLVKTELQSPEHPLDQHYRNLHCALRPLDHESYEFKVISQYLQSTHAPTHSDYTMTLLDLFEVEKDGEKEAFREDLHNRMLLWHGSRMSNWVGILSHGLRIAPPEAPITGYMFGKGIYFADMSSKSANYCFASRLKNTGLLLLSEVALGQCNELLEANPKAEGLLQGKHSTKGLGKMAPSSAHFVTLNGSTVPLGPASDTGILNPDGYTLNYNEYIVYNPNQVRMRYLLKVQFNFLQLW
SMILES,IC50 (PARP1),IC50 (hERG),IC50 (PARP6),IC50 (PARP5a),IC50 (BRCA2 (−/−) DLD1 cells),efflux ratio at 90 min (MDR1 and BCRP),IC50 (PARP3),IC50 (DLD1 cells),MDCK-MDR1-BCRP Efflux Ratio [1],IC50 (PARP2)
"CNC(=O)c1ccc(N2CCN(Cc3ccc4nc(C(C)F)c(=O)[nH]c4c3F)CC2)c(F)n1 (single isomer, unassigned) [Example 12, 6-fluoro-5-[4-[[5-fluoro-2-[(1S OR 1R)-1-fluoroethyl]-3-oxo-4H-quinoxalin-6-yl]methyl]piperazin-1-yl]-N-methyl-pyridine-2-carboxamide]",0.015 µM,> 40 µM,> 100 µM,> 100 µM,0.008 µM,4.2,85 µM,–,–,–
"CNC(=O)c1ccc(N2CCN(Cc3ccc4nc(C(C)F)c(=O)[nH]c4c3F)CC2)c(F)n1 (single isomer, unassigned) [Example 13, 6-fluoro-5-[4-[[5-fluoro-2-[(1S OR 1R)-1-fluoroethyl]-3-oxo-4H-quinoxalin-6-yl]methyl]piperazin-1-yl]-N-methyl-pyridine-2-carboxamide]",0.009 µM,> 40 µM,> 100 µM,> 100 µM,0.019 µM,–,62 µM,22 µM,3.0,> 100 µM

# From patent US12421208B2, “Chemical compounds” (ASTRAZENECA AB, priority 2020, dated 2025)
